According to ChEMBL document CHEMBL1131676, “The discovery of orally available thrombin inhibitors: optimisation of the P1 pharmacophore” (Bioorg Med Chem Lett, 1999):
pKi: −log10 of the molar value.

Columns and labels:
Prothrombin = Prothrombin (Homo sapiens, UniProt P00734); assay: Binding affinity to human thrombin
[1] = Effect on doubling of human clotting time assay expressed as Activated partial thromboplastin time value (APTT); type: functional

Row | SMILES | pKi (Prothrombin) | APTT [1] [µM]
1 | O=C([C@H](Cc1cscn1)NS(=O)(=O)c1cnccc1N[C@H](CO)Cc1ccccc1)N1CCC(CCF)CC1 | 6.55 | 9.17
2 | O=C([C@@H](NS(=O)(=O)c1cnccc1N[C@H](CO)Cc1ccccc1)C1CCCCC1)N1CCC(CCF)CC1 | 4.93 | 
3 | Nc1cc(C[C@H](NS(=O)(=O)c2cnccc2N[C@H](CO)Cc2ccccc2)C(=O)N2CCC(CCF)CC2)ccc1O | 7.59 | 1.53
4 | NCCCC[C@H](NS(=O)(=O)c1cnccc1N[C@H](CO)Cc1ccccc1)C(=O)N1CCC(CCF)CC1 | 5.74 | 
5 | O=C([C@@H](NS(=O)(=O)c1cnccc1N[C@H](CO)Cc1ccccc1)c1ccncc1)N1CCC(CCF)CC1 | 5.81 | 
6 | CC(C)C[C@H](NS(=O)(=O)c1cnccc1N[C@H](CO)Cc1ccccc1)C(=O)N1CCC(CCF)CC1 | 4.92 | 
7 | O=C([C@H](Cc1ccc(O)cc1)NS(=O)(=O)c1cnccc1N[C@H](CO)Cc1ccccc1)N1CCC(CCF)CC1 | 7.39 | 1.91
8 | O=C([C@H](Cc1ccc(O)c(O)c1)NS(=O)(=O)c1cnccc1N[C@H](CO)Cc1ccccc1)N1CCC(CCF)CC1 | 7.09 | 6.17
9 | CNc1ccc([C@H](NS(=O)(=O)c2cnccc2N[C@H](CO)Cc2ccccc2)C(=O)N2CCC(CCF)CC2)cc1 | 7.92 | 4.08
10 | C[C@H](NS(=O)(=O)c1cnccc1N[C@H](CO)Cc1ccccc1)C(=O)N1CCC(CCF)CC1 | 4.30 | 
11 | CCNc1ccc(C[C@H](NS(=O)(=O)c2cnccc2N[C@H](CO)Cc2ccccc2)C(=O)N2CCC(CCF)CC2)cc1 | 6.24 | 17.4
12 | CC(C)[C@H](NS(=O)(=O)c1cnccc1N[C@H](CO)Cc1ccccc1)C(=O)N1CCC(CCF)CC1 | 5.19 | 
13 | O=C([C@H](Cc1ccc2c(c1)OCO2)NS(=O)(=O)c1cnccc1N[C@H](CO)Cc1ccccc1)N1CCC(CCF)CC1 | 7.37 | 6.39
14 | COc1ccc(C[C@H](NS(=O)(=O)c2cnccc2N[C@H](CO)Cc2ccccc2)C(=O)N2CCC(CCF)CC2)cc1 | 7.44 | 8.013
15 | O=C([C@H](Cc1ccccc1)NS(=O)(=O)c1cnccc1N[C@H](CO)Cc1ccccc1)N1CCC(CCF)CC1 | 7.00 | 11
16 | O=C([C@H](Cc1ccc2ccccc2c1)NS(=O)(=O)c1cnccc1N[C@H](CO)Cc1ccccc1)N1CCC(CCF)CC1 | 7.16 | 26
17 | O=C([C@H](Cc1cccnc1)NS(=O)(=O)c1cnccc1N[C@H](CO)Cc1ccccc1)N1CCC(CCF)CC1 | 5.79 | 20.33
18 | N=C(N)NCC[C@H](NS(=O)(=O)c1cnccc1N[C@H](CO)Cc1ccccc1)C(=O)N1CCC(CCF)CC1 | 7.80 | 0.75
19 | O=C([C@H](Cc1ccccn1)NS(=O)(=O)c1cnccc1N[C@H](CO)Cc1ccccc1)N1CCC(CCF)CC1 | 7.09 | 3.87
